The structures appear in SMILES notation.

The term melting point denotes the temperature, or range, at which the solid turns liquid. As to `CCn1cnc2c(Nc3ccc(NC(=O)Oc4ccccc4)cc3)nc(N[C@H]3CC[C@H](O)CC3)nc21`, the melting point is 135 to 139 °C.
Next, `CCn1cnc2c(Nc3cccc(NC(=O)Oc4ccccc4)c3)nc(N[C@H]3CC[C@H](O)CC3)nc21`: 131 to 134 °C.
Compound `CCCCc1ccc(N(c2nc(N[C@H]3CCCC[C@H]3C(N)=O)nc3c2ncn3CC)S(N)(=O)=O)cc1` (relative stereo) [Example 1, cis-2-[6-(4-butyl-aminosulfonyl-phenylamino)-9-ethyl-9H-purin-2-yl-amino]-cyclohexanecarboxylic acid amide] displayed a melting point of 220 °C.
Next, `CCn1cnc2c(Nc3cccc(C(=O)NCc4ccccc4)c3)nc(N[C@H]3CC[C@H](O)CC3)nc21` [Example 72, N-benzyl-3-[9-ethyl-2-(trans-4-hydroxy-cyclohexylamino)-9H-purin-6-yl-amino]-benzamide]: 215 °C; `CCn1cnc2c(Nc3cccc(C(=O)NCc4ccc(F)cc4)c3)nc(N[C@H]3CC[C@H](O)CC3)nc21` [Example 73, 3-[9-ethyl-2-(trans-4-hydroxy-cyclohexylamino)-9H-purin-6-yl-amino]-N-(4-fluoro-benzyl)-benzamide]: 165 to 167 °C.
As to `CCn1cnc2c(Nc3cccc(C(=O)NCc4ccc(C)cc4)c3)nc(N[C@H]3CC[C@H](O)CC3)nc21` [Example 74, 3-[9-ethyl-2-(trans-4-hydroxy-cyclohexylamino)-9H-purin-6-yl-amino]-N-(4-methyl-benzyl)-benzamide], the melting point was 130 to 134 °C.
Next, `CCn1cnc2c(Nc3cccc(C(=O)NCc4ccc(OC)cc4)c3)nc(N[C@H]3CC[C@H](O)CC3)nc21` [Example 75, 3-[9-ethyl-2-(trans-4-hydroxy-cyclohexylamino)-9H-purin-6-yl-amino]-N-(4-methoxy-benzyl)-benzamide]: 157 to 158 °C.
For `CCn1cnc2c(Nc3cccc(C(=O)NCc4ccc(C(F)(F)F)cc4)c3)nc(N[C@H]3CC[C@H](O)CC3)nc21` [Example 76, 3-[9-ethyl-2-(trans-4-hydroxy-cyclohexylamino)-9H-purin-6-yl-amino]-N-(4-trifluoromethyl-benzyl)-benzamide], the melting point fell in the range of 129 to 137 °C.
The result for `CCn1cnc2c(Nc3cccc(NS(C)(=O)=O)c3)nc(N[C@H]3CC[C@H](O)CC3)nc21` [Example 80, N-{3-[9-Ethyl-2-(trans-4-hydroxy-cyclo-hexylamino)-9H-purin-6-yl-amino]-phenyl} methanesulfonamide] reads 265 to 267 °C; that for `CCn1cnc2c(Nc3cccc(NS(=O)(=O)c4ccc(OC)cc4)c3)nc(N[C@H]3CC[C@H](O)CC3)nc21` [Example 82, N-{3-[9-Ethyl-2-(trans-4-hydroxy-cyclo-hexylamino)-9H-purin-6-yl-amino]-phenyl}-4-methoxy-benzenesulfonamide], 140 to 143 °C.
The result for `CCn1cnc2c(Nc3ccc(NC(=O)OC)cc3)nc(N[C@H]3CC[C@H](O)CC3)nc21` [Example 83, {4-(9-Ethyl-2-(trans-4-hydroxy-cyclo-hexylamino)-9H-purin-6-yl-amino]-phenyl)-carbamic acid methyl ester] reads 131 to 135 °C; that for `CCn1cnc2c(Nc3ccc(NC(=O)OCC(C)C)cc3)nc(N[C@H]3CC[C@H](O)CC3)nc21` [Example 84, {4-[9-Ethyl-2-(trans-4-hydroxy-cyclo-hexylamino)-9H-purin-6-yl-amino]-phenyl}-carbamic acid isobutyl ester], 121 to 125 °C.
Turning to `CCn1cnc2c(Nc3cccc(NC(=O)OC)c3)nc(N[C@H]3CC[C@H](O)CC3)nc21` [Example 86, {3-[9-Ethyl-2-(trans-4-hydroxy-cyclo-hexylamino)-9H-purin-6-yl-amino]-phenyl}-carbamic acid methyl ester], the melting point is 214 to 217 °C.
Turning to `CCn1cnc2c(Nc3cccc(NC(=O)OCC(C)C)c3)nc(N[C@H]3CC[C@H](O)CC3)nc21` [Example 87, {3-[9-Ethyl-2-(trans-4-hydroxy-cyclo-hexylamino)-9H-purin-6-yl-amino]-phenyl}-carbamic acid isobutyl ester], the melting point is 122 to 125 °C.
`CCn1cnc2c(Nc3cccc(NC(=O)C#Cc4ccc(Cl)cc4)c3)nc(N[C@H]3CC[C@H](O)CC3)nc21` [Example 92, N-{3-[9-Ethyl-2-(trans-4-hydroxy-cyclo-hexylamino)-9H-purin-6-yl-amino]-phenyl}-3-(4-chlorophenyl)-propargylic acid amide] came in with a melting point of 148 to 150 °C.
Next, `CCn1cnc2c(Nc3cccc(NC(=O)C#Cc4ccc(F)cc4)c3)nc(N[C@H]3CC[C@H](O)CC3)nc21` [Example 93, N-{3-[9-Ethyl-2-(trans-4-hydroxy-cyclo-hexylamino)-9H-purin-6-yl-amino]-phenyl}-3-(4-fluorophenyl)-propargylic acid amide]: 144 to 146 °C.
Next, `CCn1cnc2c(Nc3cccc(NC(=O)C#Cc4ccc(OC)cc4)c3)nc(N[C@H]3CC[C@H](O)CC3)nc21` [Example 95, N-{3-[9-Ethyl-2-(trans-4-hydroxy-cyclo-hexylamino)-9H-purin-6-yl-amino]-phenyl}-3-(4-methoxyphenyl)-propargylic acid amide]: 142 to 144 °C; `CC(C)n1cnc2c(Nc3cccc(NC(=O)C#Cc4ccc(Cl)cc4)c3)nc(NC3CCC(O)CC3)nc21` (stereo not shown) [Example 96, 3-(4-Chloro-phenyl)-propynoic acid {3-[2-(4-hydroxy-cyclohexylamino)-9-isopropyl-9H-purin-6-ylamino]-phenyl}-amide]: 156 to 158 °C; `Cc1ccc(C#CC(=O)Nc2cccc(Nc3nc(NC4CCC(O)CC4)nc4c3ncn4C(C)C)c2)cc1` (stereo not shown) [Example 97, 3-p-Tolyl-propynoic acid {3-[2-(4-hydroxy-cyclohexylamino)-9-isopropyl-9H-purin-6-ylamino]-phenyl}-amide]: 152 to 154 °C.
`COc1ccc(C#CC(=O)Nc2cccc(Nc3nc(NC4CCC(O)CC4)nc4c3ncn4C(C)C)c2)cc1` (stereo not shown) [Example 98, 3-(4-Methoxy-phenyl)-propynoic acid {3-[2-(4-hydroxy-cyclohexyl-amino)-9-isopropyl-9H-purin-6-ylamino]-phenyl)-amide] yielded a melting point of 246 to 248 °C.
The compound `CC(C)n1cnc2c(Nc3cccc(NC(=O)C#Cc4ccc(F)cc4)c3)nc(NC3CCC(O)CC3)nc21` (stereo not shown) [Example 99, 3-(4-Fluoro-phenyl)-propynoic acid {3-[2-(4-hydroxy-cyclohexylamino)-9-isopropyl-9H-purin-6-ylamino]-phenyl}-amide] showed a melting point of 145 to 147 °C.
Next, `CC(C)n1cnc2c(Nc3cccc(NC(=O)C#Cc4ccccc4)c3)nc(NC3CCC(O)CC3)nc21` (stereo not shown) [Example 100, 3-(Phenyl)-propynoic acid {3-[2-(4-hydroxy-cyclohexylamino)-9-isopropyl-9H-purin-6-ylamino]-phenyl}-amide]: 162 to 164 °C.
The result for `CC(C)n1cnc2c(Nc3cccc(NC(=O)c4ccc(-c5ccccc5)cc4)c3)nc(NC3CCC(O)CC3)nc21` (stereo not shown) [Example 101, Biphenyl-4-carboxylic acid {3-[2-(4-hydroxy-cyclohexylamino)-9-isopropyl-9H-purin-6-ylamino]-phenyl]-amide] reads 226 to 228 °C; that for `CCn1cnc2c(Nc3cccc(NC(=O)C#Cc4cccc(C)c4)c3)nc(NC3CCC(O)CC3)nc21` (stereo not shown) [Example 102, 3-m-Tolyl-propynoic acid {3-[9-ethyl-2-(4-hydroxy-cyclohexylamino)-9H-purin-6-ylamino]-phenyl}-amide], 164 to 171 °C.
The compound `CCn1cnc2c(Nc3cccc(NC(=O)C#Cc4cccc(C(F)(F)F)c4)c3)nc(NC3CCC(O)CC3)nc21` (stereo not shown) [Example 103, 3-(3-Trifluoromethyl-phenyl)-propynoic acid {3-[9-ethyl-2-(4-hydroxy-cyclohexylamino)-9H-purin 6-ylamino]-phenyl}-amide] returned a melting point of 156 to 168 °C.
Turning to `CCn1cnc2c(Nc3cccc(NC(=O)C#Cc4cccc(C)n4)c3)nc(NC3CCC(O)CC3)nc21` (stereo not shown) [Example 105, 3-(6-Methyl-pyridin-2-yl)-propynoic acid {3-[9-ethyl-2-(4-hydroxy-cyclohexylamino)-9H-purin-6-ylamino]-phenyl}-amide], the melting point lay within 149 to 156 °C.
The result for `CCn1cnc2c(Nc3cccc(NC(=O)C#Cc4nccc(C)n4)c3)nc(NC3CCC(O)CC3)nc21` (stereo not shown) [Example 106, 3-(4-Methyl-pyrimidin-2-yl)-propynoic acid {3-[9-ethyl-2-(4-hydroxy-cyclohexylamino)-9H-purin-6-ylamino]-phenyl}-amide] reads 167 to 177 °C.
The result for `CCn1cnc2c(Nc3cccc(NC(=O)C#Cc4c(Cl)cccc4Cl)c3)nc(N[C@H]3CC[C@H](O)CC3)nc21` [Example 107, N-{3-[9-Ethyl-2-(trans-4-hydroxy-cyclo-hexylamino)-9H-purin-6-yl-amino]-phenyl}-3-(2,6-dichlorophenyl)-propargylic acid amide] reads 234 to 236 °C; that for `CCn1cnc2c(Nc3cccc(NC(=O)C#Cc4cccs4)c3)nc(N[C@H]3CC[C@H](O)CC3)nc21` [Example 108, N-{3-[9-Ethyl-2-(trans-4-hydroxy-cyclo-hexylamino)-9H-purin-6-yl-amino]-phenyl}-3-(2-thiophenyl)-propargylic acid amide], 158 to 161 °C; that for `CCn1cnc2c(Nc3cccc(NC(=O)C#Cc4cc(C)ccc4C)c3)nc(N[C@H]3CC[C@H](O)CC3)nc21` [Example 109, N-{3-[9-Ethyl-2-(trans-4-hydroxy-cyclo-hexylamino)-9H-purin-6-yl-amino]-phenyl)-3-(2,5-dimethyl-phenyl)-propargylic acid amide], 231 to 232 °C.
The result for `CCn1cnc2c(Nc3cccc(NC(=O)C#Cc4ccc(C)c(C)c4)c3)nc(N[C@H]3CC[C@H](O)CC3)nc21` [Example 110, N-(3-[9-Ethyl-2-(trans-4-hydroxy-cyclo-hexylamino)-9H-purin-6-yl-amino]-phenyl}-3-(3,4-dimethyl-phenyl)-propargylic acid amide] reads 146 to 148 °C.

For the origin of these results see patent publication US6767906B2, “2-amino-6-anilino-purines and their use as medicaments” (Novartis AG, priority 1999, dated 2004).
